# Reference: the NIST ThermoML archive (doi:10.1021/je0604232)
# ± gives the expanded uncertainty stated by the source.
# Test: molar heat capacity at constant pressure; xn = mol fraction of the nth substance listed
# Details: 101 kPa, Liquid
compound,measurement,setting,value
CC(O)CN (stereo not given) [1-amino-2-propanol] + O,molar heat capacity at constant pressure,"303.15 K, x1 = 0.1",95 ± 1 J/K/mol
same,molar heat capacity at constant pressure,"303.15 K, x1 = 0.2007",110 ± 1 J/K/mol
same,molar heat capacity at constant pressure,"303.15 K, x1 = 0.2996",121 ± 1 J/K/mol
same,molar heat capacity at constant pressure,"303.15 K, x1 = 0.4001",133 ± 1 J/K/mol
same,molar heat capacity at constant pressure,"303.15 K, x1 = 0.4983",145 ± 1 J/K/mol
same,molar heat capacity at constant pressure,"303.15 K, x1 = 0.6013",158 ± 1 J/K/mol
same,molar heat capacity at constant pressure,"303.15 K, x1 = 0.6999",170 ± 2 J/K/mol
same,molar heat capacity at constant pressure,"303.15 K, x1 = 0.7996",183 ± 2 J/K/mol
same,molar heat capacity at constant pressure,"303.15 K, x1 = 0.8959",196 ± 2 J/K/mol
same,molar heat capacity at constant pressure,"303.15 K, x1 = 1",209 ± 2 J/K/mol
same,molar heat capacity at constant pressure,"308.15 K, x1 = 0.1",97 ± 1 J/K/mol
same,molar heat capacity at constant pressure,"308.15 K, x1 = 0.2007",113 ± 1 J/K/mol
same,molar heat capacity at constant pressure,"308.15 K, x1 = 0.2996",124 ± 1 J/K/mol
same,molar heat capacity at constant pressure,"308.15 K, x1 = 0.4001",137 ± 1 J/K/mol
same,molar heat capacity at constant pressure,"308.15 K, x1 = 0.4983",149 ± 1 J/K/mol
same,molar heat capacity at constant pressure,"308.15 K, x1 = 0.6013",162 ± 1 J/K/mol
same,molar heat capacity at constant pressure,"308.15 K, x1 = 0.6999",174 ± 2 J/K/mol
same,molar heat capacity at constant pressure,"308.15 K, x1 = 0.7996",187 ± 2 J/K/mol
same,molar heat capacity at constant pressure,"308.15 K, x1 = 0.8959",200 ± 2 J/K/mol
same,molar heat capacity at constant pressure,"308.15 K, x1 = 1",213 ± 2 J/K/mol
same,molar heat capacity at constant pressure,"313.15 K, x1 = 0.1",98 ± 1 J/K/mol
same,molar heat capacity at constant pressure,"313.15 K, x1 = 0.2007",114 ± 1 J/K/mol
same,molar heat capacity at constant pressure,"313.15 K, x1 = 0.2996",126 ± 1 J/K/mol
same,molar heat capacity at constant pressure,"313.15 K, x1 = 0.4001",139 ± 1 J/K/mol
same,molar heat capacity at constant pressure,"313.15 K, x1 = 0.4983",151 ± 1 J/K/mol
same,molar heat capacity at constant pressure,"313.15 K, x1 = 0.6013",164 ± 1 J/K/mol
same,molar heat capacity at constant pressure,"313.15 K, x1 = 0.6999",176 ± 2 J/K/mol
same,molar heat capacity at constant pressure,"313.15 K, x1 = 0.7996",188 ± 2 J/K/mol
same,molar heat capacity at constant pressure,"313.15 K, x1 = 0.8959",201 ± 2 J/K/mol
same,molar heat capacity at constant pressure,"313.15 K, x1 = 1",214 ± 2 J/K/mol
same,molar heat capacity at constant pressure,"318.15 K, x1 = 0.1",99 ± 1 J/K/mol
same,molar heat capacity at constant pressure,"318.15 K, x1 = 0.2007",116 ± 1 J/K/mol
same,molar heat capacity at constant pressure,"318.15 K, x1 = 0.2996",128 ± 1 J/K/mol
same,molar heat capacity at constant pressure,"318.15 K, x1 = 0.4001",141 ± 1 J/K/mol
same,molar heat capacity at constant pressure,"318.15 K, x1 = 0.4983",154 ± 1 J/K/mol
same,molar heat capacity at constant pressure,"318.15 K, x1 = 0.6013",166 ± 1 J/K/mol
same,molar heat capacity at constant pressure,"318.15 K, x1 = 0.6999",177 ± 2 J/K/mol
same,molar heat capacity at constant pressure,"318.15 K, x1 = 0.7996",190 ± 2 J/K/mol
same,molar heat capacity at constant pressure,"318.15 K, x1 = 0.8959",202 ± 2 J/K/mol
same,molar heat capacity at constant pressure,"318.15 K, x1 = 1",215 ± 2 J/K/mol
same,molar heat capacity at constant pressure,"323.15 K, x1 = 0.1",100 ± 1 J/K/mol
same,molar heat capacity at constant pressure,"323.15 K, x1 = 0.2007",117 ± 1 J/K/mol
same,molar heat capacity at constant pressure,"323.15 K, x1 = 0.2996",130 ± 1 J/K/mol
same,molar heat capacity at constant pressure,"323.15 K, x1 = 0.4001",144 ± 1 J/K/mol
same,molar heat capacity at constant pressure,"323.15 K, x1 = 0.4983",156 ± 1 J/K/mol
same,molar heat capacity at constant pressure,"323.15 K, x1 = 0.6013",168 ± 1 J/K/mol
same,molar heat capacity at constant pressure,"323.15 K, x1 = 0.6999",180 ± 2 J/K/mol
same,molar heat capacity at constant pressure,"323.15 K, x1 = 0.7996",192 ± 2 J/K/mol
same,molar heat capacity at constant pressure,"323.15 K, x1 = 0.8959",204 ± 2 J/K/mol
same,molar heat capacity at constant pressure,"323.15 K, x1 = 1",217 ± 2 J/K/mol
same,molar heat capacity at constant pressure,"328.15 K, x1 = 0.1",102 ± 1 J/K/mol
same,molar heat capacity at constant pressure,"328.15 K, x1 = 0.2007",119 ± 1 J/K/mol
same,molar heat capacity at constant pressure,"328.15 K, x1 = 0.2996",133 ± 1 J/K/mol
same,molar heat capacity at constant pressure,"328.15 K, x1 = 0.4001",147 ± 1 J/K/mol
same,molar heat capacity at constant pressure,"328.15 K, x1 = 0.4983",159 ± 1 J/K/mol
same,molar heat capacity at constant pressure,"328.15 K, x1 = 0.6013",171 ± 2 J/K/mol
same,molar heat capacity at constant pressure,"328.15 K, x1 = 0.6999",182 ± 2 J/K/mol
same,molar heat capacity at constant pressure,"328.15 K, x1 = 0.7996",194 ± 2 J/K/mol
same,molar heat capacity at constant pressure,"328.15 K, x1 = 0.8959",206 ± 2 J/K/mol
same,molar heat capacity at constant pressure,"328.15 K, x1 = 1",218 ± 2 J/K/mol
same,molar heat capacity at constant pressure,"333.15 K, x1 = 0.1",104 ± 1 J/K/mol
same,molar heat capacity at constant pressure,"333.15 K, x1 = 0.2007",121 ± 1 J/K/mol
same,molar heat capacity at constant pressure,"333.15 K, x1 = 0.2996",136 ± 1 J/K/mol
same,molar heat capacity at constant pressure,"333.15 K, x1 = 0.4001",150 ± 1 J/K/mol
same,molar heat capacity at constant pressure,"333.15 K, x1 = 0.4983",162 ± 1 J/K/mol
same,molar heat capacity at constant pressure,"333.15 K, x1 = 0.6013",174 ± 2 J/K/mol
same,molar heat capacity at constant pressure,"333.15 K, x1 = 0.6999",185 ± 2 J/K/mol
same,molar heat capacity at constant pressure,"333.15 K, x1 = 0.7996",197 ± 2 J/K/mol
same,molar heat capacity at constant pressure,"333.15 K, x1 = 0.8959",209 ± 2 J/K/mol
same,molar heat capacity at constant pressure,"333.15 K, x1 = 1",221 ± 2 J/K/mol
same,molar heat capacity at constant pressure,"338.15 K, x1 = 0.1",106 ± 1 J/K/mol
same,molar heat capacity at constant pressure,"338.15 K, x1 = 0.2007",125 ± 1 J/K/mol
same,molar heat capacity at constant pressure,"338.15 K, x1 = 0.2996",140 ± 1 J/K/mol
same,molar heat capacity at constant pressure,"338.15 K, x1 = 0.4001",154 ± 1 J/K/mol
same,molar heat capacity at constant pressure,"338.15 K, x1 = 0.4983",166 ± 1 J/K/mol
same,molar heat capacity at constant pressure,"338.15 K, x1 = 0.6013",178 ± 2 J/K/mol
same,molar heat capacity at constant pressure,"338.15 K, x1 = 0.6999",188 ± 2 J/K/mol
same,molar heat capacity at constant pressure,"338.15 K, x1 = 0.7996",200 ± 2 J/K/mol
same,molar heat capacity at constant pressure,"338.15 K, x1 = 0.8959",211 ± 2 J/K/mol
same,molar heat capacity at constant pressure,"338.15 K, x1 = 1",223 ± 2 J/K/mol
same,molar heat capacity at constant pressure,"343.15 K, x1 = 0.1",109 ± 1 J/K/mol
same,molar heat capacity at constant pressure,"343.15 K, x1 = 0.2007",128 ± 1 J/K/mol
same,molar heat capacity at constant pressure,"343.15 K, x1 = 0.2996",144 ± 1 J/K/mol
same,molar heat capacity at constant pressure,"343.15 K, x1 = 0.4001",158 ± 1 J/K/mol
same,molar heat capacity at constant pressure,"343.15 K, x1 = 0.4983",170 ± 2 J/K/mol
same,molar heat capacity at constant pressure,"343.15 K, x1 = 0.6013",181 ± 2 J/K/mol
same,molar heat capacity at constant pressure,"343.15 K, x1 = 0.6999",192 ± 2 J/K/mol
same,molar heat capacity at constant pressure,"343.15 K, x1 = 0.7996",203 ± 2 J/K/mol
same,molar heat capacity at constant pressure,"343.15 K, x1 = 0.8959",214 ± 2 J/K/mol
same,molar heat capacity at constant pressure,"343.15 K, x1 = 1",225 ± 2 J/K/mol
same,molar heat capacity at constant pressure,"348.15 K, x1 = 0.1",112 ± 1 J/K/mol
same,molar heat capacity at constant pressure,"348.15 K, x1 = 0.2007",133 ± 1 J/K/mol
same,molar heat capacity at constant pressure,"348.15 K, x1 = 0.2996",149 ± 1 J/K/mol
same,molar heat capacity at constant pressure,"348.15 K, x1 = 0.4001",163 ± 1 J/K/mol
same,molar heat capacity at constant pressure,"348.15 K, x1 = 0.4983",175 ± 2 J/K/mol
same,molar heat capacity at constant pressure,"348.15 K, x1 = 0.6013",185 ± 2 J/K/mol
same,molar heat capacity at constant pressure,"348.15 K, x1 = 0.6999",195 ± 2 J/K/mol
same,molar heat capacity at constant pressure,"348.15 K, x1 = 0.7996",206 ± 2 J/K/mol
same,molar heat capacity at constant pressure,"348.15 K, x1 = 0.8959",216 ± 2 J/K/mol
same,molar heat capacity at constant pressure,"348.15 K, x1 = 1",228 ± 2 J/K/mol
same,molar heat capacity at constant pressure,"353.15 K, x1 = 0.1",117 ± 1 J/K/mol
same,molar heat capacity at constant pressure,"353.15 K, x1 = 0.2007",138 ± 1 J/K/mol
same,molar heat capacity at constant pressure,"353.15 K, x1 = 0.2996",155 ± 1 J/K/mol
same,molar heat capacity at constant pressure,"353.15 K, x1 = 0.4001",169 ± 1 J/K/mol
same,molar heat capacity at constant pressure,"353.15 K, x1 = 0.4983",180 ± 2 J/K/mol
same,molar heat capacity at constant pressure,"353.15 K, x1 = 0.6013",190 ± 2 J/K/mol
same,molar heat capacity at constant pressure,"353.15 K, x1 = 0.6999",199 ± 2 J/K/mol
same,molar heat capacity at constant pressure,"353.15 K, x1 = 0.7996",209 ± 2 J/K/mol
same,molar heat capacity at constant pressure,"353.15 K, x1 = 0.8959",219 ± 2 J/K/mol
same,molar heat capacity at constant pressure,"353.15 K, x1 = 1",230 ± 2 J/K/mol
